Measurements reported in patent US9045470B2, “Compounds and compositions as TLR activity modulators” (IRM LLC, priority 2009, dated 2015).
pEC50: −log10 of the molar value.

Assays:
[1] = Binding to aluminum hydroxide adjuvant, HPLC of formulation supernatant; type: physicochemical; conditions: aluminum hydroxide 2 mg/mL, room temperature and 37° C., 1, 5 and 24 hours
Description: The binding of the compounds of Formula (I) provided herein to aluminum-containing adjuvants at pH 9 and pH 6.5 was evaluated using HPLC to monitor the presence of the compound of Formula (I) in the supernatant.
(§1) Compound 1 (0.5 mg/mL) was dissolved in 10 mM NaOH and added to aluminum hydroxide adjuvant (2 mg/mL) resulting in a 100 μg/dose formulation. The supernatant was evaluated with HPLC using a ballistic gradient (from 10% CH3CN-0.1% TFA to 100% CH3CN-0.1% TFA in 2.5 minutes) on a C18 ([…]×4.6 mm) ACE column at 45° C. To evaluate the effect of supernatant temperature and incubation time on binding, the supernatant was evaluated at a supernatant temperature of room temperature and at 37° C. after 1 hour, 5 hours and 24 hours. A control without aluminum hydroxide was also evaluated.
as §1, with “5 (1” for “1 (0.5”
as §1, with “formulation. The pH of the solution was adjusted to pH 6.5 using HCl.” for “formulation.”
as §1, with “5 (1” for “1 (0.5”, “histidine buffer (1 mg/mL)” for “NaOH”

human TLR7 = molecular target: T1, human TLR7 (Homo sapiens, UniProt Q9NYK1); assay: Reporter gene assay: HEK293 cells stably transfected with human TLR7 and NF-kB-driven luciferase reporter; type: cell-based
T1 construct: expressed in transfected cells; host or cells: HEK 293 (human embryonic kidney 293), stably transfected; co-transfected pNifty-Luciferase reporter
T1 sequence (Q9NYK1 27-1049): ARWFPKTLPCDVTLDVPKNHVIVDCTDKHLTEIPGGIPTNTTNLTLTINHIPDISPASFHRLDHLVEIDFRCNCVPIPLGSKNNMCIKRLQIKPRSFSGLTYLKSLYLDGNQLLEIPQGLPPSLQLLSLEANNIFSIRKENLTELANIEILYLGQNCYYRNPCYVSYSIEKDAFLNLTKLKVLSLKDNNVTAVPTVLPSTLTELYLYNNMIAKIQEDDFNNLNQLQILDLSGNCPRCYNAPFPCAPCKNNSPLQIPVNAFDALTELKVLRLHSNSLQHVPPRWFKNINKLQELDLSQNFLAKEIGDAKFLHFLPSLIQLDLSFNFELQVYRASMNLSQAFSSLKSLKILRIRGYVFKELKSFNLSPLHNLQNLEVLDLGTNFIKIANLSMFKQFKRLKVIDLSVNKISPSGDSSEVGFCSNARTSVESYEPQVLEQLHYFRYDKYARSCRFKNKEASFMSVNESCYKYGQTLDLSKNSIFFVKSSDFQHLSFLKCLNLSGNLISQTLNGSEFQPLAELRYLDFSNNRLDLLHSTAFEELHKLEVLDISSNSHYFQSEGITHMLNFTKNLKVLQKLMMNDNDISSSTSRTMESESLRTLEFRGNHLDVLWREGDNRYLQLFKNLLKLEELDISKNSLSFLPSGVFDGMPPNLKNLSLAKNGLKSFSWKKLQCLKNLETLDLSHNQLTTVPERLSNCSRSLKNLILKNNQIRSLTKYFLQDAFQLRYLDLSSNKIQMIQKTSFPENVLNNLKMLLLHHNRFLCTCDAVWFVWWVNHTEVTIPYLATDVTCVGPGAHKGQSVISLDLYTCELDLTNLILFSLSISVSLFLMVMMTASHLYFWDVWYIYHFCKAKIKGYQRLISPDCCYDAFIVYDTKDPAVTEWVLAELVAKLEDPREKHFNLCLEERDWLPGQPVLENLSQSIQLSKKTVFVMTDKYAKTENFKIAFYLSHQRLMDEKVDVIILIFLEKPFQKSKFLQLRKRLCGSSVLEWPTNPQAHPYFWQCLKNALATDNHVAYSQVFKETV
Description: Human embryonic kidney 293 (HEK 293) cells were stably transfected with human TLR7 and an NF-kB-driven luciferase reporter vector (pNifty-Luciferase). As a control assay, normal Hek293 transfected with pNifty-Luc were used. Cells were cultured in DMEM supplemented with 2 mM L-glutamine, 10% heart inactivated FBS, 1% penicillin and streptomycin, 2 μg/ml puromycin (InvivoGen #ant-pr-5) and 5 μg/ml of blasticidin (Invitrogen #46-1120). Bright-Glo™ Luciferase assay buffer and substrate were supplied by Promega #E263B and #E264B (assay substrate and buffer respectively). 384 well clear-bottom plates were supplied by Greiner bio-one (#789163-G) and were custom bar-coded plates.
Cells were plated at 25,000 cells/well in 384-well plates in a final volume of 50 μl of media. Cells were allowed to adhere to the plates after overnight (18 hours) culture at 37° C. and 5% CO2. Serially diluted experimental and positive control compounds were then dispensed to each well and incubated for 7 hours at 37° C. and 5% CO2. Cells stimulated with DMSO alone also serve as negative controls. After the incubation, 30 μl of the pre-mix assay buffer and substrate buffer were added to each well according to manufacturer's instructions.
The EC50 value in those experiments is given as that concentration of the test compound in question that provoke a response halfway between the baseline and maximum responses. […] Such EC50 values are obtained relative to the activity of resiquimod set to 100%.

[2] = Desorption from aluminum hydroxide with KH2PO4 and n-butanol extraction, HPLC; type: physicochemical
Description: An organic solvent extraction method was used to evaluate whether compound 1 was covalently bound to aluminum hydroxide. The formulation was prepared as follows: 2 mg/ml aluminum hydroxide, 100 μg/dose compound 1, 10 mM histidine buffer) and the pH was adjusted to 9. A control formulation without aluminum hydroxide was also prepared.
One ml of the formulation containing Alum was mixed with 1 ml of KH2PO4 1M pH 9 (0.5M final conc, pH 9) and was left in gentle agitation overnight at 37° C. to allow desorption of compound 1 (compound 5) from the aluminum hydroxide via ligand exchange with the phosphate anions. Organic extraction was then performed: 1 ml of each sample was mixed with 1 ml of n-butanol and vortexed. After the formation of 2 phases, the upper phase (butanol) was recovered, dried with N2 and resuspended in MeOH/10 mM NaOH. HPLC analysis was run both for the formulation supernatants and for the butanol extracted samples (C18 column; 0-100% B in 2 min; A=0.1% TFA in H2O; B=0.1% TFA in ACN).
The adsorption of compound 16 and compound 18 to aluminum hydroxide was also evaluated using the alum formulation described above for compound 1. […] In addition, SDS PAGE analysis of antigen binding in the presence of compound 16 or compound 18 was carried out as described above.

[3] = Binding to alum in 10 mM histidine buffer, LC-MS/MS of supernatant; type: physicochemical; conditions: 10 mM histidine buffer pH 6.8; final compound 0.1 mg/mL; 37° C. for 5 hours; 100% minus % unbound
Description: The resulting solution was diluted 10-fold with blank histidine buffer to a final compound concentration of 0.1 mg/mL. Diluted solutions were incubated at 37° C. for 5 hours. The samples were centrifuged at 14,000 rpm for 10 minutes to pellet the insoluble. The supernatant (along with an internal standard) was then evaluated by LC-MS/MS using a ballistic gradient (from 5% CH3CN-0.5% formic acid to 95% CH3CN-1.0% formic acid in 3.5 minutes) on a Waters Atlantis dC18 (50 mm×2.1 mm) column at room temperature against a calibration curve prepared at known compound concentrations ranging from 0.005 to 50 μM. The concentration in the supernatant was calculated as % unbound to alum compared to control; the % bound to alum was calculated as 100% minus % unbound.

Cc1ccc2c(c1)nc(N)c1ncc(CCc3ccc(OCCCP(=O)(O)O)cc3C)cc12 [Compound 1, 3-(4-(2-(5-amino-8-methylbenzo[f][1,7]naphthyridin-2-yl)ethyl)-3-methylphenoxy)propylphosphonic acid]
presence of compound in supernatant when aluminum hydroxide included in formulation (HPLC) ([1]; pH 6.5 (adjusted with HCl)): not present in the supernatant | presence of compound in supernatant when aluminum hydroxide included in formulation (HPLC) ([1]; pH 9, dissolved in 10 mM NaOH): not present in the supernatant | pEC50 (human TLR7): 6.65 | quantity of compound in supernatant of formulation treated with KH2PO4 (desorption by phosphate anions) ([2]; 0.5M KH2PO4 pH 9, overnight 37° C.): Increased quantities | Concentration (mg/ml), phosphate/extract ([2]; alum formulation treated with 0.5M KH2PO4, n-butanol extracted sample): 0.119 ± 0.001 mg/mL | Concentration (mg/ml), phosphate supernatent ([2]; alum formulation treated with 0.5M KH2PO4 pH 9 overnight at 37° C., supernatant): 0.059 ± 0.001 mg/mL | Concentration (mg/ml), extaract ([2]; alum formulation, n-butanol extracted sample): 0.027 ± 0.001 mg/mL | Concentration (mg/ml), control/extract ([2]; control formulation without aluminum hydroxide, n-butanol extracted sample): 0.217 ± 0.001 mg/mL | Concentration (mg/ml), supernatant control ([2]; control formulation without aluminum hydroxide, supernatant): 0.329 ± 0.001 mg/mL | Concentration (mg/ml), supernatent ([2]; formulation with 2 mg/ml aluminum hydroxide, 10 mM histidine buffer pH 9, supernatant): 0.005 ± 0.001 mg/mL

Cc1cc(OCCOCCOCCP(=O)(O)O)ccc1CCc1cnc2c(N)nc3cc(CCC(=O)O)ccc3c2c1 [Compound 20, 3-(5-amino-2-(2-methyl-4-(2-(2-(2-phosphonoethoxy)ethoxy)ethoxy)phenethyl)benzo[f][1,7]naphthyridin-8-yl)propanoic acid]
% Alum bound in Histidine buffer [3]: 97.0% | pEC50 (human TLR7): 6.42

Cc1cc(OCCCC(F)(F)P(=O)(O)O)ccc1CCc1cnc2c(N)nc3cc(CCC(=O)O)ccc3c2c1 [Compound 16, 3-(5-amino-2-(4-(4,4-difluoro-4-phosphonobutoxy)-2-methylphenethyl)benzo[f][1,7]naphthyridin-8-yl)propanoic acid]
% Alum bound in Histidine buffer [3]: 94.5% | pEC50 (human TLR7): 6.86 | compound in supernatant after addition of aluminum hydroxide (HPLC) ([2]; alum formulation as described for compound 1): no compound was observed in the supernatant

Cc1ccc2c(c1)nc(N)c1ncc(CCc3ccc(OCCCC(F)(F)P(=O)(O)O)cc3C)cc12 [Compound 5, 4-(4-(2-(5-amino-8-methylbenzo[f][1,7]naphthyridin-2-yl)ethyl)-3-methylphenoxy)-1,1-difluorobutylphosphonic acid]
presence of compound in supernatant when aluminum hydroxide included in formulation (HPLC) ([1]; pH 6.7, 10 mM histidine buffer): not present in the supernatant | presence of compound in supernatant when aluminum hydroxide included in formulation (HPLC) ([1]; pH 9, dissolved in 10 mM NaOH): not present in the supernatant | pEC50 (human TLR7): 6.51
